Measured values taken from patent US20230144824A1, “1H-PYRAZOLO[4,3-d]PYRIMIDINE COMPOUNDS AS TOLL-LIKE RECEPTOR 7 (TLR7) AGONISTS” (BRISTOL-MYERS SQUIBB COMPANY, priority 2020, published 2023).

Tests used:
human TLR7 = target: T1, human TLR7 (Homo sapiens, UniProt Q9NYK1); test: Human TLR7 agonist activity assay (HEK-Blue TLR7 SEAP reporter); assay type: cell-based; conditions: HEK-Blue TLR7 cells, 18 h treatment, average where assay performed multiple times, read-out: hTLR7 Agonism EC50
T1 construct: host or cells: HEK-Blue TLR7 cells (engineered human embryonic kidney cells)
T1 sequence (Q9NYK1 27-1049): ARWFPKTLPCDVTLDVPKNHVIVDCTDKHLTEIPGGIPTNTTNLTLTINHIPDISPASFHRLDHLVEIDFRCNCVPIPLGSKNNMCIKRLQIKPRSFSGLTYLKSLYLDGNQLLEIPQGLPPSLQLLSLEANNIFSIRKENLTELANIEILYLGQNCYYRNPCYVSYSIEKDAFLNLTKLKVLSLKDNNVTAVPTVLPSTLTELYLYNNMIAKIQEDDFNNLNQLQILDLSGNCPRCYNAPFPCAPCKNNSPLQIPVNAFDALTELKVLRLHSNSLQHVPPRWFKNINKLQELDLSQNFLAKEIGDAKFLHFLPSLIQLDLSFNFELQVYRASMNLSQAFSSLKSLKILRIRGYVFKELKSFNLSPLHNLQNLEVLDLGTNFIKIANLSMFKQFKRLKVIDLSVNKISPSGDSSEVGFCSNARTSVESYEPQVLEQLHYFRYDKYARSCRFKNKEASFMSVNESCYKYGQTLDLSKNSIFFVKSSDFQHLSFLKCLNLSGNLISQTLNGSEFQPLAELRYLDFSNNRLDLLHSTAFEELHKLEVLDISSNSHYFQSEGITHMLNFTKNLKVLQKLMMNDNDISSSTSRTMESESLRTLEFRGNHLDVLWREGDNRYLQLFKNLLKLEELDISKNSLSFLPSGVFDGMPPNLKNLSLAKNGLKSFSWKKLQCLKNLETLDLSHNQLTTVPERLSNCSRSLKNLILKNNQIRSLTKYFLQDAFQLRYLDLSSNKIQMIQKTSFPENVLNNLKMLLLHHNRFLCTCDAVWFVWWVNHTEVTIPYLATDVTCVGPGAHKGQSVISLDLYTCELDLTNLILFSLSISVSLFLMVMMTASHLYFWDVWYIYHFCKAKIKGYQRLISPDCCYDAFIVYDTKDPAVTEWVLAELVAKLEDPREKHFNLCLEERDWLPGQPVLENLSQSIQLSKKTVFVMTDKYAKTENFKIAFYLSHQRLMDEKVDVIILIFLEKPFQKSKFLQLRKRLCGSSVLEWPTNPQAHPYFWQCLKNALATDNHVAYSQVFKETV
Outline: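 HEK-Blue TLR7 cells (15,000/well) treated with compound for 18 h at 37 °C, 5% CO2. Secreted SEAP measured with Quanti-Blue, 30 min, OD 620 nm. EC50 taken as concentration giving half-maximal response between baseline and maximum.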

CD69 = test: Induction of CD69 in human whole blood; assay type: cell-based; conditions: Homo sapiens, 17 h, 100% set to 1 uM of resiquimod, average where assay performed multiple times, read-out: hWB CD69 EC50
Outline: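 Heparinized human whole blood treated with TLR7 agonist at final 1 uM and incubated 17 h at 37° C. CD69 surface staining alongside CD14 and CD19, then fix/lysis and flow cytometry on iQuePlus. Curves fitted with 1 uM resiquimod set as 100%.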

SMILES	EC50 (human TLR7)	EC50 (CD69)
CCCCNc1nc(N)nc2cnn(Cc3ncc(C4CCN(C)CC4)cc3OC)c12 [Compound 111, N7-butyl-1-{[3-methoxy-5-(1-methylpiperidin-4-yl)pyridin-2-yl]methyl}-1H-pyrazolo[4,3-d]pyrimidine-5,7-diamine]	65.3 nM	5.4 nM
CCCCNc1nc(N)nc2cnn(Cc3ncc(C4CCN(CC(N)=O)CC4)cc3OC)c12 [Compound 119, 2-[4-(6-{[5-amino-7-(butylamino)-1H-pyrazolo[4,3-d]pyrimidin-1-yl]methyl}-5-methoxypyridin-3-yl)piperidin-1-yl]acetamide]	165 nM	5.1 nM
CCC[C@@H](CCO)Nc1nc(N)nc2cnn(Cc3cnc(C4CCN(C(C)C)CC4)cc3OC)c12 [Compound 167, (3S)-3-{[5-amino-1-({4-methoxy-6-[1-(propan-2-yl)piperidin-4-yl]pyridin-3-yl}methyl)-1H-pyrazolo[4,3-d]pyrimidin-7-yl]amino}hexan-1-ol]	9.4 nM	0.17 nM
CCC[C@@H](CCO)Nc1nc(N)nc2cnn(Cc3ccc(C4CN(CCO)CCN4)cc3OC)c12 (stereo partly drawn) [Compound 181, (3S)-3-{[5-amino-1-({4-[4-(2-hydroxyethyl)piperazin-2-yl]-2-methoxyphenyl}methyl)-1H-pyrazolo[4,3-d]pyrimidin-7-yl]amino}hexan-1-ol]	139 nM	4.57 nM
CCCCNc1nc(N)nc2cnn(Cc3ncc(C4CCN(C5CNC5)CC4)cc3OC)c12 [Compound 115, 1-({5-[1-(azetidin-3-yl)piperidin-4-yl]-3-methoxypyridin-2-yl}methyl)-N7-butyl-1H-pyrazolo[4,3-d]pyrimidine-5,7-diamine]	447 nM	64.7 nM
CCCCNc1nc(N)nc2cnn(Cc3cc(F)c(N4CCN(C(=O)CN5CCC[C@H]5CO)CC4)cc3OC)c12 [Compound 198, 1-[4-(4-{[5-amino-7-(butylamino)-1H-pyrazolo[4,3-d]pyrimidin-1-yl]methyl}-2-fluoro-5-methoxyphenyl)piperazin-1-yl]-2-[(2S)-2-(hydroxymethyl)pyrrolidin-1-yl]ethan-1-one]	48.2 nM	50.9 nM
CCC[C@@H](CCO)Nc1nc(N)nc2cnn(Cc3nc(C4CCN(CCO)CC4)ccc3OC)c12 [Compound 188, (3S)-3-{[5-amino-1-({6-[1-(2-hydroxyethyl)piperidin-4-yl]-3-methoxypyridin-2-yl}methyl)-1H-pyrazolo[4,3-d]pyrimidin-7-yl]amino}hexan-1-ol]	290 nM	83.7 nM
CCCCNc1nc(N)nc2c(Cl)nn(Cc3ncc(C4CCN(C5CCOCC5)CC4)cc3OC)c12 [Compound 149, N7-butyl-3-chloro-1-({3-methoxy-5-[1-(oxan-4-yl)piperidin-4-yl]pyridin-2-yl}methyl)-1H-pyrazolo[4,3-d]pyrimidine-5,7-diamine]	869 nM	590 nM
CCC[C@@H](CCO)Nc1nc(N)nc2cnn(Cc3ncc(C4CCNCC4)cc3OC)c12 [Compound 124, (3S)-3-[(5-amino-1-{[3-methoxy-5-(piperidin-4-yl)pyridin-2-yl]methyl}-1H-pyrazolo[4,3-d]pyrimidin-7-yl)amino]hexan-1-ol]	189 nM	56.9 nM
COc1cc(C2CCN(CCO)CC2)cnc1Cn1ncc2nc(N)nc(NCc3cc(C)on3)c21 [Compound 144, 2-(4-{6-[(5-amino-7-{[(5-methyl-1,2-oxazol-3-yl)methyl]amino}-1H-pyrazolo[4,3-d]pyrimidin-1-yl)methyl]-5-methoxypyridin-3-yl}piperidin-1-yl)ethan-1-ol]	77 nM	8.7 nM
CCC[C@@H](CCO)Nc1nc(N)nc2cnn(Cc3ncc(C4CCN(C5CC6(COC6)C5)CC4)cc3OC)c12 [Compound 148, (3S)-3-[(5-amino-1-{[3-methoxy-5-(1-{2-oxaspiro[3.3]heptan-6-yl}piperidin-4-yl)pyridin-2-yl]methyl}-1H-pyrazolo[4,3-d]pyrimidin-7-yl)amino]hexan-1-ol]	14.1 nM	0.49 nM
CCC[C@@H](CCO)Nc1nc(N)nc2cnn(Cc3cnc(C4CCN(C)CC4)cc3OC)c12 [Compound 174, (3S)-3-[(5-amino-1-{[4-methoxy-6-(1-methylpiperidin-4-yl)pyridin-3-yl]methyl}-1H-pyrazolo[4,3-d]pyrimidin-7-yl)amino]hexan-1-ol]	11 nM	2.9 nM
CCC[C@@H](CCO)Nc1nc(N)nc2cnn(Cc3nc(C4CCN(C5CCOCC5)CC4)ccc3OC)c12 [Compound 189, (3S)-3-{[5-amino-1-({3-methoxy-6-[1-(oxan-4-yl)piperidin-4-yl]pyridin-2-yl}methyl)-1H-pyrazolo[4,3-d]pyrimidin-7-yl]amino}hexan-1-ol]	85.3 nM	9.8 nM
CCC[C@@H](CCO)Nc1nc(N)nc2cnn(Cc3cnc(C4CCNCC4)cc3OC)c12 [Compound 166, (3S)-3-[(5-amino-1-{[4-methoxy-6-(piperidin-4-yl)pyridin-3-yl]methyl}-1H-pyrazolo[4,3-d]pyrimidin-7-yl)amino]hexan-1-ol]	45.5 nM	22.5 nM

The remaining molecules from weak to strong by EC50 (human TLR7), led by results:

EC50 (human TLR7)	EC50 (CD69)	SMILES
399 nM	27.8 nM	CCC[C@@H](CCO)Nc1nc(N)nc2cnn(Cc3ncc(C4C[C@@H](C#N)CN4)cc3OC)c12 (mixture of isomers) [Compound 185, (3R)-5-{6-[(5-amino-7-{[(3S)-1-hydroxyhexan-3-yl]amino}-1H-pyrazolo[4,3-d]pyrimidin-1-yl)methyl]-5-methoxypyridin-3-yl}pyrrolidine-3-carbonitrile]
279 nM	2 nM	CCC[C@@H](CCO)Nc1nc(N)nc2cnn(Cc3ncc(C4CCCN4)cc3OC)c12 (stereo partly drawn) [Compound 178, (3S)-3-[(5-amino-1-{[3-methoxy-5-(pyrrolidin-2-yl)pyridin-2-yl]methyl}-1H-pyrazolo[4,3-d]pyrimidin-7-yl)amino]hexan-1-ol]
209 nM	42.6 nM	CCCCNc1nc(N)nc2cnn(Cc3ncc(C4CC(C)(C)NC(C)(C)C4)cc3OC)c12 [Compound 170, N7-butyl-1-{[3-methoxy-5-(2,2,6,6-tetramethylpiperidin-4-yl)pyridin-2-yl]methyl}-1H-pyrazolo[4,3-d]pyrimidine-5,7-diamine]
131 nM	81 nM	CCCCNc1nc(N)nc2cnn(Cc3cc(F)c(N4CCN(C(=O)CNCC(C)(C)O)CC4)cc3OC)c12 [Compound 196, 1-[4-(4-{[5-amino-7-(butylamino)-1H-pyrazolo[4,3-d]pyrimidin-1-yl]methyl}-2-fluoro-5-methoxyphenyl)piperazin-1-yl]-2-[(2-hydroxy-2-methylpropyl)amino]ethan-1-one]
62 nM	4.1 nM	COc1cc(C2CCN(C)CC2)cnc1Cn1ncc2nc(N)nc(NCC3CC4(CC4)C3)c21 [Compound 159, 1-{[3-methoxy-5-(1-methylpiperidin-4-yl)pyridin-2-yl]methyl}-N7-({spiro[2.3]hexan-5-yl}methyl)-1H-pyrazolo[4,3-d]pyrimidine-5,7-diamine]
49.9 nM	3.6 nM	CCCCNc1nc(N)nc2cnn(Cc3ncc(C4CCN(CCO)CC4)cc3OC)c12 [Compound 114, 2-[4-(6-{[5-amino-7-(butylamino)-1H-pyrazolo[4,3-d]pyrimidin-1-yl]methyl}-5-methoxypyridin-3-yl)piperidin-1-yl]ethan-1-ol]
34 nM	5.9 nM	CCCCNc1nc(N)nc2cnn(Cc3ncc(C4CCN(C5CCOCC5)CC4)cc3OC)c12 [Compound 112, N7-butyl-1-({3-methoxy-5-[1-(oxan-4-yl)piperidin-4-yl]pyridin-2-yl}methyl)-1H-pyrazolo[4,3-d]pyrimidine-5,7-diamine]
14.1 nM	2.6 nM	CCC[C@@H](CCO)Nc1nc(N)nc2cnn(Cc3ncc(C4CCN(C)CC4)cc3OC)c12 [Compound 134, (3S)-3-[(5-amino-1-{[3-methoxy-5-(1-methylpiperidin-4-yl)pyridin-2-yl]methyl}-1H-pyrazolo[4,3-d]pyrimidin-7-yl)amino]hexan-1-ol]
